molecular target: T1, human Npt2a (Homo sapiens, UniProt Q06495); assay: Npt2a activity cell based assay, membrane potential dye, CHO T-REx hNpt2a cells; details: doxycycline-induced, depolarization by sodium phosphate influx, average or median values if tested more than once
T1 construct: expressed in transfected cells
T1 sequence (Q06495 1-639): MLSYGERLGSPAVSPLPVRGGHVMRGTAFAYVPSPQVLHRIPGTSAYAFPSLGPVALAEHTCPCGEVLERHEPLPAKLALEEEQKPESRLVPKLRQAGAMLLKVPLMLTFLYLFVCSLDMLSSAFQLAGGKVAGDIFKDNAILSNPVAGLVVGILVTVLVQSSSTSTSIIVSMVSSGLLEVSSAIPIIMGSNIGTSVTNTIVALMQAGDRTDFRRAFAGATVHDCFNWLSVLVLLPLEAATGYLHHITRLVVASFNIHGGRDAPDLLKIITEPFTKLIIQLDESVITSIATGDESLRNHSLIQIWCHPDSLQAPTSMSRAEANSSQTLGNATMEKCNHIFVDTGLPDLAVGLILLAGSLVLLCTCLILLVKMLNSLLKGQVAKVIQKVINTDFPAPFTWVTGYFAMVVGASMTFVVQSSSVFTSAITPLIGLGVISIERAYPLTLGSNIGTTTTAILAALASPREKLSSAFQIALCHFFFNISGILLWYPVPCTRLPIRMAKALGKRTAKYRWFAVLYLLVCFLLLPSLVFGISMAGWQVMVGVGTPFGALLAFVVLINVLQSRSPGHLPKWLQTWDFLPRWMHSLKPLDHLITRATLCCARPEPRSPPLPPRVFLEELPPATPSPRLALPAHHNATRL
Outline: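 Cells were doxycycline-induced CHO T-REx hNpt2a, dye-loaded and pretreated 5 min at RT with 1 nM–50 μM compound in Na-free pH 7.4 buffer. IC50 was fit to the post/pre-trigger fluorescence ratio.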

**Q.** Which IC50 does the source give for `Cc1cc(C)n(-c2cc(Nc3c(C)c(-c4ccc(C(F)(F)F)nc4)nn3CC3CC3)ncn2)n1` [Example 533, N-{1-(cyclopropylmethyl)-4-methyl-3-[6-(trifluoromethyl)pyridin-3-yl]-1H-pyrazol-5-yl}-6-(3,5-dimethyl-1H-pyrazol-1-yl)pyrimidin-4-amine] here?
**A.** 2000 nM

**Q.** `Cc1nn(-c2cc(Nc3c(Cl)c(-c4ccc(F)cc4)nn3C)ncn2)c(C(C)(C)O)c1Cl` [Example 278, 2-[4-chloro-1-(6-{[4-chloro-3-(4-fluorophenyl)-1-methyl-1H-pyrazol-5-yl]amino}pyrimidin-4-yl)-3-methyl-1H-pyrazol-5-yl]propan-2-ol] was tested. Which IC50 did it give?
**A.** 86 nM

**Q.** With `CCc1c(Nc2cc(-n3nc(C)c(C)c3O)ncn2)nn(C)c1-c1ccc(F)cc1` [Example 25, 1-(6-{[4-ethyl-5-(4-fluorophenyl)-1-methyl-1H-pyrazol-3-yl]amino}pyrimidin-4-yl)-3,4-dimethyl-1H-pyrazol-5-ol] as the compound, how does the IC50 read?
**A.** 1070 nM

**Q.** Which IC50 does the source give for `Cc1nn(-c2cc(Nc3nn(C)c(-c4ccc(F)cc4)c3OC(F)F)ncn2)c(C)c1C(C)(C)O` [Example 500, 2-[1-(6-{[4-(difluoromethoxy)-5-(4-fluorophenyl)-1-methyl-1H-pyrazol-3-yl]amino}pyrimidin-4-yl)-3,5-dimethyl-1H-pyrazol-4-yl]propan-2-ol] here?
**A.** 52 nM

**Q.** With `COc1c(Nc2cc(-n3nc(C)cc3C(F)F)ncn2)nn(C)c1-c1ccc(C#N)cc1` [Example 410, 4-[3-({6-[5-(difluoromethyl)-3-methyl-1H-pyrazol-1-yl]pyrimidin-4-yl}amino)-4-methoxy-1-methyl-1H-pyrazol-5-yl]benzonitrile] as the compound, how does the IC50 read?
**A.** 2 nM

**Q.** How did the IC50 turn out when `CCc1c(Nc2cc(-n3cc4c(n3)CCC4)ncn2)n[nH]c1-c1ccc(F)cc1` [Example 20, 6-(5,6-dihydrocyclopenta[c]pyrazol-2(4H)-yl)-N-[4-ethyl-5-(4-fluorophenyl)-1H-pyrazol-3-yl]pyrimidin-4-amine] was run?
**A.** 120 nM

**Q.** For `COc1c(-c2ccc(C#N)cc2)nn(CC2CC2)c1Nc1cc(-n2nc(C)cc2C)ncn1` [Example 316, 4-[1-(cyclopropylmethyl)-5-{[6-(3,5-dimethyl-1H-pyrazol-1-yl)pyrimidin-4-yl]amino}-4-methoxy-1H-pyrazol-3-yl]benzonitrile], which IC50 is on record?
**A.** 81 nM

**Q.** Which IC50 does the source give for `Cc1cc(C(F)F)n(-c2cc(Nc3c(C)c(-c4ccc(C(F)(F)F)cc4)nn3CC3CC3)ncn2)n1` [Example 307, N-{1-(cyclopropylmethyl)-4-methyl-3-[4-(trifluoromethyl)phenyl]-1H-pyrazol-5-yl}-6-[5-(difluoromethyl)-3-methyl-1H-pyrazol-1-yl]pyrimidin-4-amine] here?
**A.** 560 nM

**Q.** How did the IC50 turn out when `Cc1c(-c2ccc(F)cc2)nn(CC2CC2)c1Nc1cc(-n2nc(C)c3ccncc32)ncn1` [Example 204, N-[1-(cyclopropylmethyl)-3-(4-fluorophenyl)-4-methyl-1H-pyrazol-5-yl]-6-(3-methyl-1H-pyrazolo[3,4-c]pyridin-1-yl)pyrimidin-4-amine] was run?
**A.** 3 nM

**Q.** How did the IC50 turn out when `Cc1nn(-c2cc(Nc3c(C)c(-c4ccncc4)nn3CC3CC3)ncn2)c(C)c1C(C)(C)O` [Example 380, 2-[1-(6-{[1-(cyclopropylmethyl)-4-methyl-3-(pyridin-4-yl)-1H-pyrazol-5-yl]amino}pyrimidin-4-yl)-3,5-dimethyl-1H-pyrazol-4-yl]propan-2-ol] was run?
**A.** 170 nM

**Q.** `CCc1c(Nc2cc(-n3nc(C)c(CO)c3C)ncn2)nn(C)c1-c1ccc(F)cc1` [Example 58, [1-(6-{[4-ethyl-5-(4-fluorophenyl)-1-methyl-1H-pyrazol-3-yl]amino}pyrimidin-4-yl)-3,5-dimethyl-1H-pyrazol-4-yl]methanol] was tested. Which IC50 did it give?
**A.** 760 nM

**Q.** Which IC50 does the source give for `CCc1c(Nc2cc(-n3cc4c(n3)CN(C(=O)OC(C)(C)C)CC4)ncn2)n[nH]c1-c1ccc(F)cc1` [Example 26, tert-butyl 2-(6-{[4-ethyl-5-(4-fluorophenyl)-1H-pyrazol-3-yl]amino}pyrimidin-4-yl)-2,4,5,7-tetrahydro-6H-pyrazolo[3,4-c]pyridine-6-carboxylate] here?
**A.** 460 nM
